Where “and” joins values, the source holds several entries; their conditions need not be identical. Equal entries are not always repeated.
Experiments:
[1] = test system: plasma TNF-α, CRP, TGF-β1, IL-8, IL-10, and BDNF; assay: Plasma cytokine and BDNF levels by ELISA during 12-week add-on memantine treatment; assay type: in vivo, human
Method: (§1) Eligible patients were given low-dose (less than 5 mg/day) add-on memantine (5 mg/day) after an initial screening, with open-label valproic acid (VPA) treatment (500 or 1000 mg/day or […] in plasma) which had begun when they joined the study. The severity of mood symptoms was assessed by using the Hamilton Depression Rating Scale (HDRS) and the Young Mania Rating Scale (YMRS). Only patients with moderate mood symptoms (HDRS≥18 or YMRS≥14) were recruited. The exact amount of alcohol used by each patient was assessed by using the Chinese version of the Modified SADS-L. Symptom severity and alcohol use were assessed at baseline, and treatment responses were measured on day 7 of weeks 1, 2, 4, 8, and 12. Concomitant benzodiazepine medications (lorazepam<8 mg and chlordiazepoxide<240 mg) were used for nighttime sedation and withdrawal symptoms during the study. Up to 20 mg/day of fluoxetine was permitted for associated depressive symptoms, and 1-3 mg of risperidone was used for hypomanic symptoms.
Ten milliliters of whole blood was withdrawn from the antecubital vein of each patient when clinical severity was assessed: at baseline, and on day 7 of weeks 1, 2, 4, 8, and 12. Plasma, which was isolated from the whole blood after it had been centrifuged at 3000 g for 15 min at 4° C., was immediately stored at −80° C. The enzyme-linked immunosorbent assay was used to quantify the cytokine levels by ELISA reader (SpectraMax® M2e, Molecular Devices, USA). Sample processing and data analysis were done according to the manufacturer's instructions. The immunological parameters—plasma TNF-α, CRP, TGF-β1, IL-8, IL-10, and BDNF—were analyzed.
(§2) The intent to-treat (ITT) analysis set included all patients who had taken at least one dose of the studied drug, and had undergone one baseline assessment and at least one post-baseline assessment. All outcome variables—HDRS, YMRS, cytokine levels, plasma BDNF levels, and metabolic parameters—in the ITT set were analyzed. Missing data were filled in by using the last observation carried forward (LOCF) method.
(§3) The overall within-group changes of each outcome over 12 weeks were analyzed by using generalized estimating equations (GEEs). The present invention ran 10 models and each outcome was deemed as a dependent variable. In each model, treatment duration, gender, and age were considered as independent variables. The covariance structure used was the autoregressive (AR [1]) model. The significance of change of each outcome over 12-week follow-up was represented by the variable “treatment duration.” Linear regression analysis was used to analyze correlations between changes in alcohol use and changes in cytokine and BDNF levels in 12 weeks. Changes in alcohol use were dependent variables, and changes in HDRS and YMRS scores, and in plasma cytokine and BDNF levels (controlled for gender, age, and baseline clinical severity) were independent variables. SPSS 22.0 for Windows was used for all statistical computations. Significance was set at p<0.05.

[2] = test system: opioid-dependent patients undergoing methadone maintenance treatment; conditions: add-on memantine; cited from earlier work
alcohol use = conditions: up to 40 mg/day of memantine; cited from earlier work
post-dependent (PD) rats = conditions: injection 25 mg/kg; cited from earlier work
[3] = test system: BD-II patients with comorbid alcohol dependence; assay: 12-week open-label low-dose add-on memantine treatment: clinical severity (HDRS, YMRS) and alcohol use; assay type: in vivo, human
Text: BD-II patients with comorbid alcohol dependence were recruited from outpatient and inpatient settings in Taiwan. All patients were initially evaluated by an attending psychiatrist and then given a structural interview by a clinical psychologist to determine according to the Diagnostic and Statistical Manual of Mental Disorders, Fourth Edition, Text Revision (DSM-IV-TR), and the Chinese version of the Modified Schedule of Affective Disorder and Schizophrenia-Life Time (SADS-L) was used, which had good inter-rater reliability. Patients suffering from major mental illnesses other than BD-II and alcohol dependence and patients who had taken memantine within 1 week before the study began were excluded.
as §1, §2, §3

[4] = test system: morphine-induced conditioned-place-preference behavior; conditions: rats; low-dose 0.02 mg/kg; cited from earlier work
NMDA receptors = conditions: read-out: 50% inhibition concentration [IC50], block of NMDA receptors; cited from earlier work
[5] = Plasma memantine concentration in treated patients; assay type: in vivo, human; conditions: patients given 5 mg/day of memantine

Compound: CC12CC3CC(C)(C1)CC(N)(C3)C2 [memantine]
- IL-10, mean at endpoint ([1]; endpoint 12 weeks, n = 26, baseline mean 2.09): 1.92
- TNF-α, mean at endpoint ([1]; endpoint 12 weeks, n = 26, baseline mean 2.64): 2.66
- IL-8, mean at endpoint ([1]; endpoint 12 weeks, n = 26, baseline mean 17.64): 10.22
- CRP, mean at endpoint ([1]; endpoint 12 weeks, n = 26, baseline mean 2960.48): 2382.29
- BDNF, mean at endpoint ([1]; endpoint 12 weeks, n = 26, baseline mean 16196.64): 18910.46
- TGF-β1, mean at endpoint ([1]; endpoint 12 weeks, n = 26, baseline mean 30884.32): 27653.85
- Change in TGF-β1 over 12 weeks of treatment ([1]; within-group change, GEE, p 0.080): −3586.37
- Change in IL-10 over 12 weeks of treatment ([1]; within-group change, GEE, p 0.605): −0.182
- Change in TNF-α over 12 weeks of treatment ([1]; within-group change, GEE, p 0.89): 0.04
- Plasma tumor necrosis factor-α (TNF-α) levels [2]: significantly downregulates
- Required methadone dose [2]: reduces
- Transforming growth factor-β1 (TGF-β1) levels [2]: upregulates
- Alcohol use as compared to placebo (alcohol use): not significantly reduced
- Alcohol drinking during acute withdrawal (post-dependent (PD) rats): reduced
- Relapses of alcohol dependence after protracted abstinence (post-dependent (PD) rats): did not reduce
- Patients who stopped drinking during the first week of memantine treatment ([3]; 15 patients of 45, first week): 33.3%
- Patients who reduced their alcohol use to 0 unit after 12 weeks ([3]; 22/26 patients, after 12 weeks): 84.6%
- HDRS, mean at endpoint ([3]; BD-II patients with comorbid alcohol dependence, add-on memantine less than 5 mg/day plus VPA, endpoint 12 weeks, n = 26, baseline mean 14.4 (n = 45)): 9.4
- Reduction of alcohol use after 12 weeks of treatment, all of the patients ([3]; after 12 weeks): > 50%
- YMRS, mean at endpoint ([3]; endpoint 12 weeks, n = 26, baseline mean 13.8 (n = 45)): 9.4
- Alcohol use (unit), mean at endpoint ([3]; endpoint 12 weeks, n = 26, baseline mean 73.9 (n = 45)): 11.8 unit
- Morphine-induced conditioned-place-preference behavior [4]: abolishes
- IC50 (NMDA receptors): 2 to 3 µM
- Plasma memantine concentrations [5]: 10-50 ng/ml and 0.05-0.2 μM

— patent US10493045B2, “Method for treating alcohol dependence or alcohol abuse” (priority 2016, dated 2019)
